Some test systems named below: COLO 205 colon; EKVX NSCLC; HCC-2998 colon; HCT-15 colon; MALME-3M melanoma; NCI-H460 lung; OVCAR-3 ovarian; RXF 393 renal; SK-OV-3 ovarian; SR leukemia.
Holding throughout (experiment): inhibition of tumour cell growth, NCI panel, 48 h

Where “and” joins values, the source holds several entries; their conditions need not be identical. Equal entries are not always repeated.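 Five compound concentrations were applied to cells in 96-well plates for 48 hours; endpoints were derived by simple linear interpolation of the resulting dose-response curve. At the GI50, growth is halved. TGI: concentration producing complete growth inhibition.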

As to `CNC(=O)c1cccc(-c2ccc3c(N4CCOC[C@@H]4C)nc(N4CCOC[C@@H]4C)nc3n2)c1`, the GI50 with COLO 205 colon was 0.0648 µM and 0.204 µM and 0.142 µM; with EKVX NSCLC, 0.0998 µM and 0.139 µM; in the experiment with HCC-2998 colon, 0.221 µM and 0.43 µM and 0.182 µM; in the experiment with HCT-15 colon, 0.0909 µM and 0.267 µM and 0.16 µM; in the experiment on MALME-3M melanoma it was 0.0201 µM and 0.0351 µM and < 0.0204 µM; with NCI-H460 lung, 0.0422 µM and 0.0853 µM and 0.0538 µM. The GI50 with OVCAR-3 ovarian is 0.0597 µM and 0.222 µM and 0.139 µM; in the experiment with RXF 393 renal, 0.0488 µM and 0.06 µM and 0.028 µM; in the experiment with SK-OV-3 ovarian it was 0.0333 µM and 0.0903 µM and 0.0446 µM; in the experiment with SR leukemia, 0.249 µM and 0.133 µM and 0.104 µM. In addition, the TGI was 0.765 µM and 2 µM with EKVX NSCLC; > 100 µM and > 10 µM and 36.6 µM in the experiment on HCC-2998 colon; > 100 µM with HCT-15 colon; 0.55 µM and 0.524 µM and 0.138 µM in the experiment with MALME-3M melanoma; > 100 µM in the experiment on NCI-H460 lung; 0.47 µM and 0.37 µM and 0.337 µM in the experiment with RXF 393 renal. For the same compound, the TGI was 0.479 µM and 0.451 µM and 0.438 µM in the experiment on SK-OV-3 ovarian; > 100 µM with SR leukemia.
On to `O=C1c2ccccc2-c2c1c1ccccc1c(=O)n2CCCN1CCOCC1`, for which the GI50 in the experiment with COLO 205 colon is > 100 µM; in the experiment with EKVX NSCLC, 22.7 µM; with HCC-2998 colon it was > 40.1 µM; in the experiment with HCT-15 colon, 21.8 µM; with MALME-3M melanoma, 9.43 µM; with NCI-H460 lung it was 20 µM. The GI50 was 25 µM with OVCAR-3 ovarian, 6.21 µM in the experiment on RXF 393 renal, 17.7 µM in the experiment with SK-OV-3 ovarian and 12.2 µM in the experiment with SR leukemia. The TGI with COLO 205 colon was > 100 µM; in the experiment with EKVX NSCLC, 76.4 µM; in the experiment on HCC-2998 colon, > 100 µM; in the experiment on HCT-15 colon, > 100 µM; with MALME-3M melanoma, 45.1 µM; in the experiment with NCI-H460 lung, > 100 µM. For the same compound, the TGI with OVCAR-3 ovarian is > 100 µM; with RXF 393 renal, 24.3 µM; in the experiment with SK-OV-3 ovarian it was 45 µM; in the experiment on SR leukemia, > 100 µM.
Take `CCN(CC)CCCCCCCNc1c2ccc(Cl)cc2nc2ccc(OC)cc12`: the GI50 in the experiment on COLO 205 colon is 1.09 µM; in the experiment on EKVX NSCLC, 1.51 µM; in the experiment on HCC-2998 colon, 1.76 µM; in the experiment with HCT-15 colon it was 0.997 µM; with MALME-3M melanoma it was 2.05 µM; in the experiment with NCI-H460 lung, 0.416 µM. Also, the GI50 in the experiment with OVCAR-3 ovarian was 1.55 µM; in the experiment with RXF 393 renal, 0.84 µM; in the experiment on SK-OV-3 ovarian, 1.41 µM; with SR leukemia it was 0.238 µM. Besides, the TGI with COLO 205 colon stood at 2.48 µM; in the experiment on EKVX NSCLC, 4.99 µM; with HCC-2998 colon it was 3.22 µM; in the experiment on HCT-15 colon it was 6.59 µM; in the experiment on MALME-3M melanoma, 4.1 µM; in the experiment with NCI-H460 lung, 1.67 µM. Besides, the TGI in the experiment on OVCAR-3 ovarian worked out at 3.69 µM; in the experiment on RXF 393 renal, 2.35 µM; in the experiment on SK-OV-3 ovarian it was 3.58 µM; in the experiment with SR leukemia, 0.634 µM.
`OCCCCC#Cc1ccccc1C#Cc1ccccc1C(F)(F)F`: the GI50 in the experiment on COLO 205 colon is 17.7 µM; in the experiment with EKVX NSCLC, 12.7 µM; in the experiment with HCC-2998 colon it was 3.64 µM; in the experiment on HCT-15 colon, 3.5 µM; in the experiment on MALME-3M melanoma it was 14.7 µM; in the experiment on NCI-H460 lung, 17.9 µM. The GI50 in the experiment on OVCAR-3 ovarian was 2.3 µM; with RXF 393 renal, 3.39 µM; in the experiment with SK-OV-3 ovarian, 17.7 µM; in the experiment on SR leukemia it was 0.475 µM. In addition, the TGI with COLO 205 colon turned out to be 33.9 µM; with EKVX NSCLC, 26.8 µM; with HCC-2998 colon, 13.9 µM; in the experiment with HCT-15 colon, 16 µM; in the experiment on MALME-3M melanoma, 37.5 µM; with NCI-H460 lung, 34.7 µM. In addition, the TGI in the experiment on OVCAR-3 ovarian turned out to be 9.28 µM; in the experiment with RXF 393 renal, 12.5 µM; in the experiment on SK-OV-3 ovarian, 32.7 µM; in the experiment on SR leukemia, 2.97 µM.
As for `COC(=O)Nc1nc2ccccc2c(=O)[nH]1`, the TGI with COLO 205 colon, in the experiment with EKVX NSCLC, with HCC-2998 colon, with HCT-15 colon, in the experiment with MALME-3M melanoma and in the experiment on NCI-H460 lung was > 100 µM each time. Besides, the TGI in the experiment with OVCAR-3 ovarian, with RXF 393 renal, in the experiment on SK-OV-3 ovarian and in the experiment on SR leukemia was > 100 µM each time.
`Cc1cc2c(F)c(Oc3ncnn4cc(OC[C@@H](C)OC(=O)[C@H](C)N)c(C)c34)ccc2[nH]1`: the GI50 with COLO 205 colon is 10.7 µM; in the experiment on EKVX NSCLC, 13.5 µM; in the experiment on HCC-2998 colon, 13.5 µM; with HCT-15 colon it was 0.882 µM; in the experiment on MALME-3M melanoma, 11.7 µM; in the experiment with NCI-H460 lung it was 2.1 µM. The GI50 with OVCAR-3 ovarian is 10.7 µM; with RXF 393 renal it was 8.4 µM; in the experiment with SK-OV-3 ovarian, 12.4 µM; in the experiment with SR leukemia it was 2.99 µM. Further, the TGI in the experiment on COLO 205 colon turned out to be 25.1 µM; in the experiment with EKVX NSCLC, 26.9 µM; in the experiment on HCC-2998 colon it was 27.6 µM; in the experiment on HCT-15 colon it was 14 µM; with MALME-3M melanoma, 24.9 µM; in the experiment on NCI-H460 lung, 13.8 µM. The TGI in the experiment with OVCAR-3 ovarian is 23.7 µM; in the experiment on RXF 393 renal, 22.5 µM; with SK-OV-3 ovarian it was 26.7 µM; with SR leukemia, 16 µM.
With `COc1ccc(-c2cn[nH]c2-c2cc(OC)c(OC)c(OC)c2)cc1N`, the GI50 was < 0.01 µM and 0.0347 µM in the experiment on COLO 205 colon; < 0.01 µM and 0.0673 µM in the experiment with EKVX NSCLC; < 0.01 µM and 0.0317 µM with HCC-2998 colon; < 0.01 µM and 0.0298 µM in the experiment with HCT-15 colon; < 0.01 µM and 0.0343 µM with NCI-H460 lung; < 0.01 µM and 0.0281 µM with OVCAR-3 ovarian. For the same compound, the GI50 in the experiment with RXF 393 renal is 0.0247 µM; in the experiment with SK-OV-3 ovarian it was < 0.01 µM and 0.0833 µM; in the experiment with SR leukemia, < 0.01 µM. In addition, the TGI with EKVX NSCLC was > 100 µM; in the experiment with HCC-2998 colon it was 93.6 µM and 32.1 µM; in the experiment with HCT-15 colon, > 100 µM; with MALME-3M melanoma it was > 100 µM; in the experiment with NCI-H460 lung, 13.3 µM and > 38.5 µM; in the experiment with RXF 393 renal, > 100 µM. The TGI in the experiment with SK-OV-3 ovarian and in the experiment with SR leukemia was > 100 µM each time.
Consider `S=C(Nc1ccc(Cl)cc1)Nc1ccc(-c2nc3ccccc3[nH]2)cc1`, for which the GI50 with COLO 205 colon was 2.65 µM; in the experiment on EKVX NSCLC it was 13.3 µM; in the experiment with HCC-2998 colon, 1.39 µM; in the experiment on HCT-15 colon, 3.82 µM; in the experiment with MALME-3M melanoma, 7.19 µM; in the experiment on NCI-H460 lung, 9.28 µM. Further, the GI50 in the experiment with OVCAR-3 ovarian was 1.33 µM; in the experiment on RXF 393 renal, 5.86 µM; in the experiment with SK-OV-3 ovarian, 17.7 µM; in the experiment with SR leukemia it was 8.07 µM. Moreover, the TGI in the experiment with COLO 205 colon is > 35.8 µM; in the experiment on EKVX NSCLC it was 52.5 µM; in the experiment with HCC-2998 colon, 2.69 µM; in the experiment with HCT-15 colon, 12.9 µM; with MALME-3M melanoma, 32.1 µM; in the experiment on NCI-H460 lung, > 43.4 µM. In addition, the TGI with RXF 393 renal was > 20.5 µM; in the experiment on SK-OV-3 ovarian, > 100 µM; in the experiment on SR leukemia, > 21.5 µM.

These data come from PubChem BioAssay (NCI).
